Experimental data from US20240310368A1, “DETECTION KIT FOR CATECHOLAMINES AND METABOLITES THEREOF IN PLASMA/URINE AND DETECTION METHOD THEREOF” (Calibra Scientific, Inc., priority 2023, published 2024).
Several values for one entry are separate records, joined by “and”; a condition that tells them apart may be missing. Equal values may be shown once. One block for each compound: values may come before it.

Key:
[1] = Acceleration test of plasma samples with stabilizers (30° C. for 1.5 days, against control plasma stored at −95° C. to −65° C.), LC-MS/MS Area/IS Area
Method: Samples were collected in EDTA-anticoagulant blood collection tubes and then rapidly subjected to […] centrifugation at 2-8° C. to separate plasma. 0.95 mL of the plasma was transferred into centrifuge tubes. After 50 μL of the stabilizer was added for uniform mixing, the plasma samples were stored by refrigeration or freezing.
• (1) 500 μL of plasma/urine samples to be tested were taken, and 50 μL of the internal standard solution and 500 μL of the buffer solution were sequentially added for vertex mixing to obtain diluted samples. • (2) The magnetic medium composite material suspension was subjected to full vortex treatment to reach a suspension state, and then subsequent operation was performed. • (3) Different reagents were added into wells of a preprocessing plate according to the follow operation: adding 200 μL of the magnetic medium composite material suspension in column 1, adding 500 μL of the balance solution in column 2, adding 850 μL of the diluted samples in column 3, adding 500 μL of the balance solution in column 4, adding 200 μL of a rinsing solution in column 5, and adding 100 μL of the elution solution in column 6. • (4) An extraction operation procedure was carried out, as shown in Table 5.
Each group of the plasma samples were stored at 30° C. for 1.5 days, and plasma without addition of any compounds stored at −95° C. to −65° C. was used as a control. […] The stabilizing effect of the single-component stabilizers on the plasma samples was investigated.
The stabilizers were mixed with plasma (the volume ratio of the stabilizers to plasma samples was 1:19), and high concentration plasma samples and low concentration plasma samples were prepared by the method provided in Example 1.
With plasma stored at −95° C. to −65° C. as a control, the above plasma samples were separately stored at 30° C. for 1.5 days to investigate the stability. […]

[2] = Stabilizing effect of accelerated stabilizers (37° C., 14 days) on standard products and quality control products then accelerated at 30° C. for 2 days; assay type: physicochemical; conditions: for Relative deviation %: 2 days at 30° C. vs Control; for concentration in standard products and quality control products, 2 days at 30° C. / concentration in standard products and quality control products, Control: single replicates
Method: Standard products of epinephrine, norepinephrine, dopamine, metanephrine, normetanephrine and 3-methoxytyramine were prepared into mixed solutions, and blank plasma containing a stabilizer was used as a matrix to prepare standard products and quality control products.
(§1) In the present example, the stabilizing effect of the stabilizers on plasma samples, standard products and quality control products after acceleration was further verified. The stabilizers were accelerated at 37° C. for 14 days (equivalent to 1 year at 2-8° C.), added into the plasma samples in proportions and then accelerated at 30° C. for 1.5 days (equivalent to 12 months at −30° C. to −15° C.). The stabilizers were accelerated at 37° C. for 14 days (equivalent to 1 year at 2-8° C.), added into the standard products and the quality control products in proportions and then accelerated at 30° C. for 2 days (equivalent to 18 months at −30° C. to −15° C.).

[3] = Stabilizing effect of accelerated stabilizers (37° C., 14 days) on plasma samples then accelerated at 30° C. for 1.5 days; assay type: physicochemical, human; conditions: for Relative deviation %: Accelerate vs Control; for concentration in plasma samples, Control / concentration in plasma samples, Accelerate: single replicates; for concentration in plasma samples, Accelerate: stabilizer accelerated 37° C. 14 days, plasma then accelerated at 30° C. for 1.5 days
Method: as §1

[4] = plasma at a high concentration level, plasma containing 50 μg/mL of the component, control plasma 0.624
[5] = plasma at a high concentration level, plasma containing 50 μg/mL of the component, control plasma 1.522
[6] = plasma at a high concentration level, plasma containing 50 μg/mL of the component, control plasma 2.27
[7] = plasma at a high concentration level, plasma containing 200 μg/mL of the component, control plasma 0.624
[8] = plasma at a high concentration level, plasma containing 200 μg/mL of the component, control plasma 1.522
[9] = plasma at a high concentration level, plasma containing 200 μg/mL of the component, control plasma 2.27
[10] = plasma at a low concentration level, plasma containing 50 μg/mL of the component, control plasma 0.079
[11] = plasma at a low concentration level, plasma containing 50 μg/mL of the component, control plasma 0.219
[12] = plasma at a low concentration level, plasma containing 50 μg/mL of the component, control plasma 0.233
[13] = plasma at a low concentration level, plasma containing 200 μg/mL of the component, control plasma 0.079
[14] = plasma at a low concentration level, plasma containing 200 μg/mL of the component, control plasma 0.219
[15] = plasma at a low concentration level, plasma containing 200 μg/mL of the component, control plasma 0.233
[16] = samples at a high concentration level
[17] = samples at a low concentration level
[18] = plasma at a high concentration level, plasma containing 0.5% of the acid, control plasma 0.624
[19] = plasma at a high concentration level, plasma containing 0.5% of the acid, control plasma 1.522
[20] = plasma at a high concentration level, plasma containing 0.5% of the acid, control plasma 2.27
[21] = plasma at a high concentration level, plasma containing 2.0% of the acid, control plasma 0.624
[22] = plasma at a high concentration level, plasma containing 2.0% of the acid, control plasma 1.522
[23] = plasma at a high concentration level, plasma containing 2.0% of the acid, control plasma 2.27
[24] = plasma at a low concentration level, plasma containing 0.5% of the acid, control plasma 0.079
[25] = plasma at a low concentration level, plasma containing 0.5% of the acid, control plasma 0.219
[26] = plasma at a low concentration level, plasma containing 0.5% of the acid, control plasma 0.233
[27] = plasma at a low concentration level, plasma containing 2.0% of the acid, control plasma 0.079
[28] = plasma at a low concentration level, plasma containing 2.0% of the acid, control plasma 0.219
[29] = plasma at a low concentration level, plasma containing 2.0% of the acid, control plasma 0.233

SMILES: O=C(O)CN(CCN(CC(=O)O)CC(=O)O)CC(=O)O.[Na].[Na] [disodium EDTA, disodium ethylenediaminetetraacetic acid]
Ratio (Area/IS Area) E [1, 4]: 0
Ratio (Area/IS Area) NE [1, 5]: 0
Ratio (Area/IS Area) DA [1, 6]: 0
Ratio (Area/IS Area) E [1, 7]: 0
Ratio (Area/IS Area) NE [1, 8]: 0
Ratio (Area/IS Area) DA [1, 9]: 0
Ratio (Area/IS Area) E [1, 10]: 0
Ratio (Area/IS Area) NE [1, 11]: 0
Ratio (Area/IS Area) DA [1, 12]: 0
Ratio (Area/IS Area) E [1, 13]: 0
Ratio (Area/IS Area) NE [1, 14]: 0
Ratio (Area/IS Area) DA [1, 15]: 0
stabilizing effect on catecholamines in plasma ([1]; single components as stabilizers): no obvious stabilizing effect

SMILES: NCCc1ccc(O)c(O)c1 [DA]
Relative deviation % ([2]; High concentration level): 0.3%
average concentration, 2 days at 30° C. ([2]; High concentration level): 1485.59 pg/mL
concentration in standard products and quality control products, 2 days at 30° C. ([2]; High concentration level): 1.46403 ng/mL and 1.43079 ng/mL and 1.56195 ng/mL
average concentration, Control ([2]; High concentration level): 1481.12 pg/mL
concentration in standard products and quality control products, Control ([2]; High concentration level): 1.46201 ng/mL and 1.49448 ng/mL and 1.48688 ng/mL
Relative deviation % ([2]; Low concentration level): −0.29%
average concentration, 2 days at 30° C. ([2]; Low concentration level): 17.86 pg/mL
concentration in standard products and quality control products, 2 days at 30° C. ([2]; Low concentration level): 0.01762 ng/mL and 0.01837 ng/mL and 0.01758 ng/mL
average concentration, Control ([2]; Low concentration level): 17.91 pg/mL
concentration in standard products and quality control products, Control ([2]; Low concentration level): 0.01722 ng/mL and 0.0181 ng/mL and 0.01841 ng/mL
Relative deviation % ([2]; Medium concentration level): −2.2%
average concentration, 2 days at 30° C. ([2]; Medium concentration level): 294.46 pg/mL
concentration in standard products and quality control products, 2 days at 30° C. ([2]; Medium concentration level): 0.2821 ng/mL and 0.31535 ng/mL and 0.28595 ng/mL
average concentration, Control ([2]; Medium concentration level): 301.09 pg/mL
concentration in standard products and quality control products, Control ([2]; Medium concentration level): 0.30826 ng/mL and 0.30148 ng/mL and 0.29352 ng/mL
Relative deviation % [3, 16]: −2.0%
concentration in plasma samples, Control [3, 16]: 0.55903 ng/mL and 0.52998 ng/mL and 0.57132 ng/mL
concentration in plasma samples, Accelerate [3, 16]: 0.55049 ng/mL and 0.5487 ng/mL and 0.52712 ng/mL
Relative deviation % [3, 17]: −0.8%
concentration in plasma samples, Control [3, 17]: 0.0743 ng/mL and 0.09053 ng/mL and 0.08768 ng/mL
concentration in plasma samples, Accelerate [3, 17]: 0.08786 ng/mL and 0.07829 ng/mL and 0.08442 ng/mL

SMILES: O=S([O-])S(=O)(=O)[O-].[Na+].[Na+] [sodium pyrosulfite]
Ratio (Area/IS Area) E [1, 4]: 0
Ratio (Area/IS Area) NE [1, 5]: 0
Ratio (Area/IS Area) DA [1, 6]: 0
Ratio (Area/IS Area) E [1, 7]: 0
Ratio (Area/IS Area) NE [1, 8]: 0
Ratio (Area/IS Area) DA [1, 9]: 0
Ratio (Area/IS Area) E [1, 10]: 0
Ratio (Area/IS Area) NE [1, 11]: 0
Ratio (Area/IS Area) DA [1, 12]: 0
Ratio (Area/IS Area) E [1, 13]: 0
Ratio (Area/IS Area) NE [1, 14]: 0
Ratio (Area/IS Area) DA [1, 15]: 0

Second part, the compound after the results:

Ratio (Area/IS Area) E [1, 18]: 0
Ratio (Area/IS Area) NE [1, 19]: 0
Ratio (Area/IS Area) DA [1, 20]: 0
Ratio (Area/IS Area) E [1, 21]: 0
Ratio (Area/IS Area) NE [1, 22]: 0
Ratio (Area/IS Area) DA [1, 23]: 0
Ratio (Area/IS Area) E [1, 24]: 0
Ratio (Area/IS Area) NE [1, 25]: 0
Ratio (Area/IS Area) DA [1, 26]: 0
Ratio (Area/IS Area) E [1, 27]: 0
Ratio (Area/IS Area) NE [1, 28]: 0
Ratio (Area/IS Area) DA [1, 29]: 0
SMILES: O=P(O)(O)O [phosphoric acid]

Ratio (Area/IS Area) E [1, 18]: 0
Ratio (Area/IS Area) NE [1, 19]: 0
Ratio (Area/IS Area) DA [1, 20]: 0
Ratio (Area/IS Area) E [1, 21]: 0
Ratio (Area/IS Area) NE [1, 22]: 0
Ratio (Area/IS Area) DA [1, 23]: 0
Ratio (Area/IS Area) E [1, 24]: 0
Ratio (Area/IS Area) NE [1, 25]: 0
Ratio (Area/IS Area) DA [1, 26]: 0
Ratio (Area/IS Area) E [1, 27]: 0
Ratio (Area/IS Area) NE [1, 28]: 0
Ratio (Area/IS Area) DA [1, 29]: 0
SMILES: CC(=O)O [acetic acid]

Ratio (Area/IS Area) E ([1]; plasma at a high concentration level, plasma containing 500 μg/mL of the component, control plasma 0.624): 0
Ratio (Area/IS Area) NE ([1]; plasma at a high concentration level, plasma containing 500 μg/mL of the component, control plasma 1.522): 0
Ratio (Area/IS Area) DA ([1]; plasma at a high concentration level, plasma containing 500 μg/mL of the component, control plasma 2.27): 0
Ratio (Area/IS Area) E ([1]; plasma at a high concentration level, plasma containing 2,000 μg/mL of the component, control plasma 0.624): 0
Ratio (Area/IS Area) NE ([1]; plasma at a high concentration level, plasma containing 2,000 μg/mL of the component, control plasma 1.522): 0
Ratio (Area/IS Area) DA ([1]; plasma at a high concentration level, plasma containing 2,000 μg/mL of the component, control plasma 2.27): 0
Ratio (Area/IS Area) E ([1]; plasma at a low concentration level, plasma containing 500 μg/mL of the component, control plasma 0.079): 0
Ratio (Area/IS Area) NE ([1]; plasma at a low concentration level, plasma containing 500 μg/mL of the component, control plasma 0.219): 0
Ratio (Area/IS Area) DA ([1]; plasma at a low concentration level, plasma containing 500 μg/mL of the component, control plasma 0.233): 0
Ratio (Area/IS Area) E ([1]; plasma at a low concentration level, plasma containing 2,000 μg/mL of the component, control plasma 0.079): 0
Ratio (Area/IS Area) NE ([1]; plasma at a low concentration level, plasma containing 2,000 μg/mL of the component, control plasma 0.219): 0
Ratio (Area/IS Area) DA ([1]; plasma at a low concentration level, plasma containing 2,000 μg/mL of the component, control plasma 0.233): 0
SMILES: O=C(O)CC(O)(CC(=O)O)C(=O)O [citric acid]
